According to paper PMC10385579, “Design, Synthesis, and Biological Evaluation of Indole-2-carboxamides as Potential Multi-Target Antiproliferative Agents” (Pharmaceuticals, 2023):

Columns and labels:
[1] = test system: human epithelial (A-549) cancer cell line; assay: Antiproliferative assay, A-549; type: cell-based; settings: A549, read-out: Antiproliferative Activity IC50 ± SEM, A-549
Method: 4.2.1.2. Assay for antiproliferative effect
To explore the antiproliferative potential of compounds propidium iodide fluorescence assay was performed using different cell lines such as Panc-1 (pancreas cancer cell line), MCF-7 (breast cancer cell line), HT-29 (colon cancer cell line) and A-549 (epithelial cancer cell line), respectively.
To calculate the total nuclear DNA, a fluorescent dye (propidium iodide, PI) is used which can attach to the DNA, thus offering a quick and precise technique. PI cannot pass through the cell membrane and its signal intensity can be considered as directly proportional to quantity of cellular
DNA. Cells whose cell membranes are damaged or have changed permeability are counted as dead ones. The assay was performed by seeding the cells of different cell lines at a density of 3000-7500 cells/well (in200μl medium) in culture plates followed by incubation for 24h at 37 °C in humidified 5%CO2/95% air atmospheric conditions. The medium was removed; the compounds were added to the plates at 10 μM concentrations (in 0.1% DMSO) in triplicates, followed by incubation for 48h. DMSO (0.1%) was used as control. After incubation, medium was removed followed by the addition of PI (25 μl, 50μg/mL in water/medium) to each well of the plates. At - 80 °C, the plates were allowed to freeze for 24 h, followed by thawing at 25 °C. A fluorometer (Polar-Star BMG Tech) was used to record the readings at excitation and emission wavelengths of 530 and 620 nm for each well. The percentage cytotoxicity of compounds was calculated using […]
Where ATC= Absorbance of treated cells and AC= Absorbance of control. Erlotinib was used as positive control in the assay.

BRAF^V600E = BRAF^V600E (Mus musculus, UniProt P28028, V585E); assay: BRAF^V600E inhibitory assay
Method: BRAFV600E inhibitory assay
V600E mutant BRAF kinase assay was performed to investigate the activity of tested compounds against BRAF. Mouse full-length GST-tagged BRAFV600E (7.5 ng, Invitrogen, PV3849) was pre-incubated with drug (1 µL) and assay dilution buffer (4 µL) for 60 min at 25 °C. In assay dilution buffer, a solution (5 µL) containing MgCl2 (30 mM), ATP (200 µM), recombinant human full length (200 ng) and N-terminal His-tagged MEK1 (Invitrogen) was added to start the assay, subsequent to incubation for 25 min at 25 °C. The assay was stopped using 5X protein denaturing buffer (LDS) solution (5 µL). To further denature the protein, heat (70° C) was applied for 5 min.
10 µL of each reaction was loaded into the precast plates and electrophoresis was allowed to proceed. After completion of electrophoresis, the front part of the precast gel plate (holding hot ATP) was cut and afterwards cast-off. The dried gel was developed using a phosphor screen.

Bcl-2 = Bcl-2 level assay in A-549 cells; type: cell-based, human; settings: for Bcl-2 Conc: control 5; for Bcl-2 Fold Reduction: vs control
Method: Compounds Va and Vg were explored further for their impact on caspase-8, Bax, and Bacl-2 levels against a human epithelial cancer cell line (A-549) using doxorubicin as a reference. See Supplementary Materials. […]
4.2.8. Bcl-2inhibition assay
Mix all reagents thoroughly without foaming before use. Wash the microwells twice with approximately 300 μL Wash Buffer per well with thorough aspiration of microwell contents between washes. Take caution not to scratch the surface of the microwells. After the last wash, empty the wells and tap microwell strips on absorbent pad or paper towel to remove excess Wash Buffer. Use the microwell strips immediately after washing or place upside down on a wet absorbent paper for not longer than 15 minutes. […] Add 100 μL of Sample […]
Diluent in duplicate to all standard wells and to the blank wells. Prepare standard (1:2 dilution) in duplicate ranging from 32 ng/mL to 0.5 ng/mL. Add 100 μL of Sample Diluent, in duplicate, to the blank wells. Add 80 μL of Sample Diluent, in duplicate, to the sample wells. Add 20 μL of each Sample, in duplicate, to the designated wells. Add 50 μL of diluted biotin-conjugate to all wells, including the blank wells. Cover with a plate cover and incubate at room temperature, on a microplate shaker at 100 rpm if available, for 2 hours. Remove plate cover and empty the wells.
Wash microwell strips 3 times as described in step 2. Add 100 μL of diluted Streptavidin-HRP to all wells, including the blank wells. Cover with a plate cover and incubate at room temperature, on a microplate shaker at 100 rpm if available, for 1 hour. Remove plate cover and empty the wells.
Wash microwell strips 3 times as described in step 2. Proceed to the next step. Pipette 100 μl of mixed TMB Substrate Solution to all wells, including the blanks. Incubate the microwell strips at room temperature (18° to 25°C) for about 15 minutes, if available on a rotator set at 100 rpm.
Avoid direct exposure to intense light. The point, at which the substrate reaction is stopped, is often determined by the ELISA reader. Many ELISA readers record absorbance only up to 2.0
O.D. Therefore, the color development within individual microwells must be watched by the person running the assay and the substrate reaction stopped before positive wells are no longer properly detectable. Stop the enzyme reaction by quickly pipetting 100 μL of Stop Solution into each well, including the blank wells. It is important that the Stop Solution is spread quickly and uniformly throughout the microwells to completely inactivate the enzyme. Results must be read immediately after the Stop Solution is added or within one hour if the microwell strips are stored at 2 - 8°C in the dark. Read absorbance of each microwell on a spectrophotometer using 450 nm as the primary wavelength.

VEGFR-2 = VEGFR-2 (Homo sapiens, UniProt P35968); assay: VEGFR-2 inhibitory assay
Method: Prepare all the solutions using autoclaved, deionized water and analytical grade reagents.
and store all the reagents at room temperature (unless indicated otherwise).
solution, add 5 mL ultra-pure water; 1×Kinase Assay Buffer: add 25 mL HEPES solution (1 M),
water, adjust pH to 7.5 and constant volume to 500 mL using ultrapure water; 4×Stop solution (40
mM): Mix 0.8 mL of the foregoing EDTA solution, 1 mL 10×Detection Buffer and 8.2 mL ultra-
pure water; 1×Detection Buffer: Mix 1 mL 10×Detection Buffer with 9 mL water; 4×VEGFR
μM) was added to 624 μL 1×Kinase Assay Buffer and mixed; 4×ULight™-labeled JAK1
concentration 5 μM) was added to 576 μL 1×Kinase Assay Buffer and mixed; 4×ATP Solution
2×substrate/ATP Mix: 560 μL foregoing 4×ULight™-labeled JAK1 and 560 μL 4×ATP solution
and mixed (prepared before use). The assays used an ULight-labeled peptide substrate and a
Europium-W1024-labeled antiphosphotyrosine antibody. The VEGFR-2 was purchased from
Carna Biosciences, Inc. (New York, USA). The 384-well plates were obtained from PerkinElmer.
5 μL 2×VEGFR-2 kinase solution (0.5 nM)
was added to 384-well plates homogeneous mixing and pre-reaction at room temperature for 30 min. Next, 2.5 μL 4×Ultra ULightTM-JAK-1(Tyr1023) Peptide (200 nM)/ATP (40 μM) was added to the corresponding wells of a 384-well plate. Negative control: 2.5 μL/well 4×substrate/ATP mixture and 7.5 μL 1×kinase assay buffer in 384-well plate well. Positive control:
μL/well 2×VEGFR-2 kinase solution was added to the 384-well plate, The final concentration of DMSO in the mixing system was 4%. After incubation at room temperature and dark for 60 min, 5 μL 4×stop solution was added to corresponding wells to react for 5 min and then 5 μL 4×detection mix was added to the corresponding wells of a 384-well plate. The mixture was centrifugally mixed and stayed for 60 min at room temperature for color development. The plate was read using a Envision plate reader. The inhibition rate (%) = (positive well reading-compound well reading)/(positive well reading-negative well reading)×100. The corresponding IC50 values were calculated using GraphPad Prism 5.0.

Bax = Bax level assay in A-549 cells; type: cell-based, human; settings: for Bax Conc: control 9; for Bax Fold Change: vs control
Method: caspase8, and lysed with Cell Extraction Buffer. This lysate was diluted in Standard Diluent Buffer over the range of the assay and measured for human active caspase-8 content. […]
4.2.7. Bax activation assay
Bring all reagents, except the human Bax-α Standard, to room temperature for at least 30 minutes prior to opening. The human Bax-α Standard solution should not be left at room temperature for more than 10 minutes. All standards, controls and samples should be run in duplicate. Refer to the Assay Layout Sheet to determine the number of wells to be used and put any remaining wells with the desiccant back into the pouch and seal the ziploc. Store unused wells at 4 °C. Pipet 100 μL of Assay Buffer into the S0 (0 pg/mL standard) wells. Pipet 100 μL of Standards #1 through #6 into the appropriate wells. Pipet 100 μL of the Samples into the appropriate wells. Tap the plate gently to mix the contents. Seal the plate and incubate at room temperature on a plate shaker for 1 hour at ~500 rpm. Empty the contents of the wells and wash by adding 400 μL of wash solution to every well. Repeat the wash 4 more times for a total of 5 washes. After the final wash, empty or aspirate the wells and firmly tap the plate on a lint free paper towel to remove any remaining wash buffer.
Pipet 100 μL of yellow Antibody into each well, except the Blank. Seal the plate and incubate at room temperature on a plate shaker for 1 hour at ~500 rpm. Empty the contents of the wells and wash by adding 400 μL of wash solution to every well. Repeat the wash 4 more times for a total of 5 washes. After the final wash, empty or aspirate the wells and firmly tap the plate on a lint free paper towel to remove any remaining wash buffer. Add 100 μL of blue Conjugate to each well, except the Blank. Seal the plate and incubate at room temperature on a plate shaker for 30 minutes […]
Pipet 100 μL of Substrate Solution into each well. Incubate for 30 minutes at room temperature on a plate shaker at ~500 rpm. Pipet 100 μL Stop Sol ution to each well. Blank the plate reader against the Blank wells, read the optical density at 450 nm. Calculate the average net Optical Density (OD) bound for each standard and sample by subtracting the average Blank OD from the average OD for each standard and sample. Using linear graph paper, plot the Average Net OD for each standard versus Bax concentration in each standard. Approximate a straight line through the points.
The concentration of Bax in the unknowns can be determined by interpolation. […]

Chain of BRAF^V600E (P28028 whole entry V585E): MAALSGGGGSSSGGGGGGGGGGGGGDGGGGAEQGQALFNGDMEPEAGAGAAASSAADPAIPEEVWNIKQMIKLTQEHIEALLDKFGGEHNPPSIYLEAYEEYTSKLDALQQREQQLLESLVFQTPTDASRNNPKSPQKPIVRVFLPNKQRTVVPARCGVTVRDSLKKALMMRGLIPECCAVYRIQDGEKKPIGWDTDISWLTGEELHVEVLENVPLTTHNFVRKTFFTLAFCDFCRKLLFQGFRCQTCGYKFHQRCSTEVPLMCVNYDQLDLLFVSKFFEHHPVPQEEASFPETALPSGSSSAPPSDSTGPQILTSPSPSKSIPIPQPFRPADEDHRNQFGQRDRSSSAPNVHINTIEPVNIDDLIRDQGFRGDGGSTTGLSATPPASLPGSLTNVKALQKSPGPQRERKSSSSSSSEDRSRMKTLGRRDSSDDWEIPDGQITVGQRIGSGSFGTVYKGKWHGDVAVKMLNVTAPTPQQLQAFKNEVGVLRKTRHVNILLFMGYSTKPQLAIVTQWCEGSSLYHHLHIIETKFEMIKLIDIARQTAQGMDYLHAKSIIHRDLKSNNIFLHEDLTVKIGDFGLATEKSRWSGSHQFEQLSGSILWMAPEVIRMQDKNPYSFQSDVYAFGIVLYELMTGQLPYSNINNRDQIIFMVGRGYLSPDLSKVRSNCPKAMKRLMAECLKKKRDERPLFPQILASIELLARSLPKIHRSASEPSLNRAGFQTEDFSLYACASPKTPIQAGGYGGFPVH
Chain of VEGFR-2 (P35968 20-1356): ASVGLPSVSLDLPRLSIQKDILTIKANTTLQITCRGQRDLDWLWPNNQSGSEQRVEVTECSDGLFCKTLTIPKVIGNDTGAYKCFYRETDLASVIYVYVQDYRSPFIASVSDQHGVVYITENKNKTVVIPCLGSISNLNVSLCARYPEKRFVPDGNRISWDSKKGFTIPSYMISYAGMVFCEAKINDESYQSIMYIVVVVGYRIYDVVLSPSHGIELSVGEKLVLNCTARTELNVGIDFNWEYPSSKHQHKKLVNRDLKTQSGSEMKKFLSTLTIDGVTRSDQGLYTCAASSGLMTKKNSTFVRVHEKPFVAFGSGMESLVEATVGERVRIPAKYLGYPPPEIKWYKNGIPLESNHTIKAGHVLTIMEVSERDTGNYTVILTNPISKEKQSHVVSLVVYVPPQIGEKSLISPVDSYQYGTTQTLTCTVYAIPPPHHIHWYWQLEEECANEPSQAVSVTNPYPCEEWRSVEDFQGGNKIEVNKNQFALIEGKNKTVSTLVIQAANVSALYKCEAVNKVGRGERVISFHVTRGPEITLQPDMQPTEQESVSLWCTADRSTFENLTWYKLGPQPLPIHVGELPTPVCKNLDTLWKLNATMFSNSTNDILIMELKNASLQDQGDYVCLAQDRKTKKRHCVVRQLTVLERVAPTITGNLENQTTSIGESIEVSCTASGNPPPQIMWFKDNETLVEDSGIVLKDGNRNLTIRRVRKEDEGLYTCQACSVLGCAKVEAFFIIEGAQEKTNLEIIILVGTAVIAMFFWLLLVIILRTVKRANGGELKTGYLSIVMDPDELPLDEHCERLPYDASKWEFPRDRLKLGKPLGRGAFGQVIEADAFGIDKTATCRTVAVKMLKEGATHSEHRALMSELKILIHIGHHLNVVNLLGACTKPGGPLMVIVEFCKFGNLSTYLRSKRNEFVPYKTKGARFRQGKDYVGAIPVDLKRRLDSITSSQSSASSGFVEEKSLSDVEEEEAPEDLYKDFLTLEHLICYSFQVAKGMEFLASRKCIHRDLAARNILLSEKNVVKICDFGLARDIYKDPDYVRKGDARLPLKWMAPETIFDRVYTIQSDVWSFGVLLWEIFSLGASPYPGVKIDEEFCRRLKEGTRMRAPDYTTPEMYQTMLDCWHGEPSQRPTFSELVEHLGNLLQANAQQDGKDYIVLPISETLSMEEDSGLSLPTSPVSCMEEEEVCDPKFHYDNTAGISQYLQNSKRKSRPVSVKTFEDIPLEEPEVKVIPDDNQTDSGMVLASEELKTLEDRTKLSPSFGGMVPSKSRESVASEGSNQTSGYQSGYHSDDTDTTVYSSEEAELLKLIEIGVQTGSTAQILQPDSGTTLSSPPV

IC50 [1] [nM]	IC50 (BRAF^V600E) [nM]	melting point [°C]	IC50 (VEGFR-2) [nM]	SMILES	Bcl-2 Conc (Bcl-2) [ng/mL]	Bcl-2 Fold Reduction (Bcl-2)	Bax Conc (Bax) [pg/mL]	Bax Fold Change (Bax)
25 ± 2	77 ± 6	112 to 114	2.15 ± 0.2	O=C(NCC(c1ccccc1)c1c(-c2ccccc2)[nH]c2ccccc12)c1cc2cc(Cl)ccc2[nH]1 (stereo not shown) [Compound Va, 5-Chloro-N-(2-phenyl-2-(2-phenyl-1H-indol-3-yl)ethyl)-1H-indole-2-carboxamide]	0.75	7	410	45
30 ± 2	83 ± 6	140 to 142	1.6 ± 0.1	CO/C=C/c1c(C(=O)NCC(c2ccccc2)c2c(-c3ccccc3)[nH]c3ccccc23)[nH]c2ccc(Cl)cc12 (stereo not shown) [Compound Vg, (E)-5-Chloro-3-(2-methoxyvinyl)-N-(2-phenyl-2-(2-phenyl-1H-indol-3-yl)ethyl)-1H-indole-2-carboxamide]	0.85	6	320	35
